In patent US20170044100A1, “INHIBITORS OF DRUG-RESISTANT MYCOBACTERIUM TUBERCULOSIS” (THE JOHNS HOPKINS UNIVERSITY, priority 2014, published 2017):
≈ marks a conversion by molar mass, not a printed value. Read-outs that look alike come from different tables or passages of the source.

Legend:
[1] = system: M. tuberculosis strain H37Rv; assay: microbe, parasite or virus in culture; type: cell-based, Mycobacterium tuberculosis; parameters: MICMABA: unit not given here
[2] = system: M. tuberculosis H37Rv; assay: microbe, parasite or virus in culture; type: cell-based, Mycobacterium tuberculosis; parameters: MICBD / MBCBD: unit not given here
[3] = system: Vero cells; assay: Cytotoxicity assay on Vero cells (alamar blue); conditions: for IC50: Chlorocebus sabaeus, Vero
[4] = Cytotoxicity assay on Vero cells (alamar blue); conditions: African green monkey, Vero cells (ATCC CCL-81)
[5] = system: M. tuberculosis H37Rv; type: cell-based, Mycobacterium tuberculosis; conditions: 4× MIC
[6] = system: V4207 (drug susceptible strain of M. tuberculosis); assay: microbe, parasite or virus in culture; type: cell-based; conditions: Mycobacterium tuberculosis, MABA, read-out: MIC V4207 (DS)
[7] = system: M. tuberculosis H37Rv; type: in vivo, BALB/c mice
[8] = Mycobacterium tuberculosis, parental H37Rv strain, read-out: MIC for H37Rv
[9] = Mycobacterium tuberculosis, H37RV
[10] = Mycobacterium tuberculosis, H37RV, read-out: MIC for H37Rv

NCC[C@H](O)C(=O)N[C@@H]1C[C@H](N)[C@@H](O[C@H]2O[C@H](CN)[C@@H](O)[C@H](O)[C@H]2O)[C@H](O)[C@H]1O[C@H]1O[C@H](CO)[C@@H](O)[C@H](N)[C@H]1O [Amikacin]
MIC [1, 8]: 1 µg/mL

Cc1cc(C)c2cc(C(=O)Nc3ccc(C)c(F)c3)[nH]c2c1 [Compound 5, N-(3-Fluoro-4-methylphenyl)-4,6-dimethyl-1H-indole-2-carboxamide]
MICMABA ([1]; H37Rv, MABA, Table 9): 0.25 | MIC [1, 9]: 1.7 µM | MBCBD ([2]; H37Rv, broth dilution, Table 9): 8 | MICBD ([2]; H37Rv, broth dilution, Table 9): 0.5 | IC50 ([3]; read-out: IC50 Vero Cells): > 64 µg/mL | IC50 at 72 h [4]: > 200 µM

Cc1cc(C)c2cc(C(=O)Nc3ccncc3)[nH]c2c1 [Compound 6, N-(4-Pyridinyl)-4,6-dimethyl-1H-indole-2-carboxamide]
MICMABA ([1]; H37Rv, MABA, Table 9): 32 | MIC [1, 9]: 240 µM | MICBD ([2]; H37Rv, broth dilution, Table 9): 64

Cc1cc(C)c2cc(C(=O)NC3CCN(C)CC3)[nH]c2c1 [Compound 7, N-(1-Methyl-4-piperidinyl)-4,6-dimethyl-1H-indole-2-carboxamide]
MICMABA [1]: 128 | MIC [1, 9]: 448 µM

Cc1cc(C)c2cc(C(=O)NC3CCN(C(C)C)CC3)[nH]c2c1 [Compound 8, N-(1-Isopropyl-4-piperidinyl)-4,6-dimethyl-1H-indole-2-carboxamide]
MICMABA ([1]; H37Rv, MABA, Table 9): 64 | MIC [1, 9]: 204 µM

Cc1cc(C)c2cc(C(=O)NC3CCCN(C)CC3)[nH]c2c1 (stereo not drawn) [Compound 9, N-(1-Methyl-4-azepanyl)-4,6-dimethyl-1H-indole-2-carboxamide]
MICMABA ([1]; H37Rv, MABA, Table 9): 128 | MIC [1, 9]: 428 µM

Cc1cc(C)c2cc(C(=O)NC3CC3)[nH]c2c1 [Compound 10, N-Cyclopropyl-4,6-dimethyl-1H-indole-2-carboxamide]
MICMABA ([1]; H37Rv, MABA, Table 9): 64 | MIC [1, 9]: 561 µM | MICBD ([2]; H37Rv, broth dilution, Table 9): 128

Cc1cc(C)c2cc(C(=O)NC3CCCCCC3)[nH]c2c1 [Compound 11, N-Cycloheptyl-4,6-dimethyl-1H-indole-2-carboxamide]
MICMABA ([1]; H37Rv, MABA, Table 9): 0.0156 | MIC [1, 9]: 0.055 µM | MIC ([1]; Mycobacterium tuberculosis, control strains H37Rv and V4207, read-out: MIC): 0.0156 to 0.0313 µg/mL | MIC [1, 8]: 0.0156 to 0.0313 µg/mL | time to kill at least 4 log10 CFUs [5]: ≤ 3 days | MIC [6]: 0.11 µM (≈ 0.0313 µg/mL) | MBCBD ([2]; H37Rv, broth dilution, Table 9): 0.0312 | MICBD ([2]; H37Rv, broth dilution, Table 9): 0.0156 | MBC ([2]; Mycobacterium tuberculosis, H37RV, read-out: minimum bactericidal concentration (MBC)): 0.0313 µg/mL (≈ 0.11 µM) | IC50 ([3]; read-out: IC50 Vero Cells): > 64 µg/mL | IC50 ([3]; read-out: IC50 for Vero cell viability): > 64 µg/mL | Selectivity Index ([3]; Vero IC50 versus MIC, Table 9): >2048 | selectivity index ([3]; toxicity versus MIC): > 2048 | IC50 at 72 h [4]: > 200 µM

Cc1cc(C)c2cc(C(=O)NC34CC5CC(CC(C5)C3)C4)[nH]c2c1 [Compound 13, N-(1-Adamantyl)-4,6-dimethyl-1H-indole-2-carboxamide]
MICMABA ([1]; H37Rv, MABA, Table 9): 0.0019 | MIC [1, 9]: 0.012 µM | IC50 ([3]; read-out: IC50 Vero Cells): > 64 µg/mL | IC50 at 72 h [4]: > 200 µM

Cc1cc(C)c2cc(C(=O)NC3C4CC5CC(C4)CC3C5)[nH]c2c1 (stereo not drawn) [Compound 14, N-(2-Adamantyl)-4,6-dimethyl-1H-indole-2-carboxamide]
MICMABA ([1]; H37Rv, MABA, Table 9): 0.0039 | MIC [1, 9]: 0.012 µM | IC50 ([3]; read-out: IC50 Vero Cells): > 64 µg/mL | IC50 at 72 h [4]: > 200 µM

Cc1cc(C)c2cc(C(=O)NCC3CCCCC3)[nH]c2c1 [Compound 15, N-(Cyclohexylmethyl)-4,6-dimethyl-1H-indole-2-carboxamide]
MICMABA ([1]; H37Rv, MABA, Table 9): 0.25 | MIC [1, 9]: 0.88 µM | MBCBD ([2]; H37Rv, broth dilution, Table 9): 0.25 | MICBD ([2]; H37Rv, broth dilution, Table 9): 0.25 | IC50 ([3]; read-out: IC50 Vero Cells): > 64 µg/mL | IC50 at 72 h [4]: > 200 µM

Cc1cc(C)c2cc(C(=O)N(C)C3CCCCC3)[nH]c2c1 [Compound 16, N-Cyclohexyl-N,4,6-trimethyl-/H-indole-2-carboxamide]
MIC [1]: 450 µM | MICMABA [1]: 32 | MICBD [2]: 128

Cc1cc(C)c2cc(C(=O)N3CCCCC3)[nH]c2c1 [Compound 17, (4,6-Dimethyl-11-1-indo1-2-yl)(piperidin-1-yl)methanone]
MIC [1]: >499 µM

Cc1cc(C)c2cc(C(=O)NC3CCCCC3)n(C)c2c1 [Compound 18, N-Cyclohexyl-1,4,6-trimethyl-11-1-indole-2-carboxamide]
MICMABA [1]: 128 | MIC [1, 9]: 450 µM | MICBD ([2]; H37Rv, broth dilution, Table 9): 128

O=C(NC1CCCCC1)c1cc2ccccc2[nH]1 [Compound 26, N-Cyclohexyl-1H-indole-2-carboxamide]
MICMABA ([1]; H37Rv, MABA, Table 9): 128 | MICBD ([2]; H37Rv, broth dilution, Table 9): >128

Cc1ccc(NC(=O)c2cc3ccccc3[nH]2)cc1F [Compound 27, N-(3-Fluoro-4-methylphenyl)-1H-indole-2-carboxamide]
MICMABA ([1]; H37Rv, MABA, Table 9): 128 | MICBD ([2]; H37Rv, broth dilution, Table 9): 128

O=C(NC1CCCCCCC1)c1cc2c(F)cc(F)cc2[nH]1 [Compound 29, N-Cyclooctyl-4,6-difluoro-1H-indole-2-carboxamide]
activity in comparison to the 4,6-dimethyl analog (1h) ([1]; H37Rv MIC relative to 1h): 8 fold | MICMABA ([1]; H37Rv, MABA, Table 9): 0.031

COc1ccc2cc(C(=O)NC34CC5CC(CC(C5)C3)C4)[nH]c2c1 [Compound 30, N-(1-Adamantyl)-6-methoxy-1H-indole-2-carboxamide]
MICMABA ([1]; H37Rv, MABA, Table 9): 0.25 | IC50 ([3]; read-out: IC50 Vero Cells, Vero cells, Table 9): 64 µg/mL (≈ 197 µM)

O=C(NC12CC3CC(CC(C3)C1)C2)c1cc2ccc(O)cc2[nH]1 [Compound 32, N-(1-Adamantyl)-6-hydroxy-1H-indole-2-carboxamide]
MICMABA ([1]; H37Rv, MABA, Table 9): 2 | IC50 ([3]; read-out: IC50 Vero Cells): 16 µg/mL (≈ 51.5 µM)

Cc1cc(C)c2c(C(=O)NC3CCCCCC3)c[nH]c2c1 [Compound 41, N-Cycloheptyl-4,6-dimethyl-1H-indole-3-carboxamide]
MICMABA ([1]; H37Rv, MABA, Table 9): >64

Cc1cc(C)c2c(C(=O)NC3CCCCCCC3)c[nH]c2c1 [Compound 42, N-Cyclooctyl-4,6-dimethyl-1H-indole-3-carboxamide]
MICMABA ([1]; H37Rv, MABA, Table 9): >64

Cc1cc(C)c2c(C(=O)NC34CC5CC(CC(C5)C3)C4)c[nH]c2c1 [Compound 43, N-(1-Adamantyl)-4,6-dimethyl-1H-indole-3-carboxamide]
MICMABA ([1]; H37Rv, MABA, Table 9): >64

Cc1cc(C)c2c(C(=O)NC3C4CC5CC(C4)CC3C5)c[nH]c2c1 (stereo not drawn) [Compound 44, N-(2-Adamantyl)-4,6-dimethyl-1H-indole-3-carboxamide]
MICMABA ([1]; H37Rv, MABA, Table 9): >64

O=C(NC1CCCCCCC1)c1cc2c(Cl)cc(Cl)cc2[nH]1 [Compound 70, N-Cyclooctyl-4,6-dichloro-1H-indole-2-carboxamide]
MICMABA ([1]; H37Rv, MABA, Table 9): 0.0039

CC[C@@H](CO)NCCN[C@@H](CC)CO [Ethambutol]
MIC [1, 8]: 1 µg/mL

NNC(=O)c1ccncc1 [Isoniazid, reference compound]
MICMABA ([1]; H37Rv, MABA, Table 9): 0.04 | MIC [1, 9]: 0.29 µM | MIC [1, 8]: 0.04 µg/mL | Mean lung CFU counts (standard deviation), Day 7 ([7]; isoniazid 10 mg/kg oral gavage daily (5 days per week), Day 7): 5.508 (0.124) | Mean lung CFU counts (standard deviation), Day 14 ([7]; isoniazid 10 mg/kg oral gavage daily, Day 14): 5.266 (0.089) | Mean lung CFU counts (standard deviation), Day 28 ([7]; isoniazid 10 mg/kg oral gavage daily, Day 28): 4.561 (0.088)

NC[C@H]1O[C@H](O[C@H]2[C@H](O)[C@@H](O[C@H]3O[C@H](CO)[C@@H](O)[C@H](N)[C@H]3O)[C@H](N)C[C@@H]2N)[C@H](O)[C@@H](O)[C@@H]1O [Kanamycin, reference compound]
MIC [1, 10]: 2 µg/mL

C[C@H]1COc2c(N3CCN(C)CC3)c(F)cc3c(=O)c(C(=O)O)cn1c23 [Levofloxacin, reference compound]
MIC [1, 8]: 0.25 µg/mL

COc1c(N2C[C@@H]3CCCN[C@@H]3C2)c(F)cc2c(=O)c(C(=O)O)cn(C3CC3)c12 [Moxifloxacin, reference compound]
MIC [1, 8]: 0.0625 to 0.125 µg/mL

CO[C@H]1/C=C/O[C@@]2(C)Oc3c(C)c(O)c4c(O)c(c(/C=N/N5CCN(C)CC5)c(O)c4c3C2=O)NC(=O)/C(C)=C\C=C\[C@H](C)[C@H](O)[C@@H](C)[C@@H](O)[C@@H](C)[C@H](OC(C)=O)[C@@H]1C [Rifampin]
MIC [1, 10]: 0.125 µg/mL

CC(C)=CCC/C(C)=C/CNCCNC1C2CC3CC(C2)CC1C3 (stereo not drawn) [SQ109]
MIC [1, 8]: 0.25 µg/mL

BM212
MIC for H37Rv ([1]; parental H37Rv strain): 2 µg/mL

Capreomycin
MIC for H37Rv ([1]; parental H37Rv strain): 1 µg/mL

N-(2,3,5 -methyl, 4-dimethyl)-6-bromo-1H-indole-2-carboxamide [BB]
MICMABA ([1]; H37Rv, MABA, Table 9): 0.0039- 0.0078
